# Assay results from patent publication US20240210394A1, “MICROORGANISM CAPTURE FROM ANTIMICROBIAL-CONTAINING SOLUTION” (MOMENTUM BIOSCIENCE LIMITED, priority 2019, published 2024).
# Experiments:
# [1] = test system: E. coli; test: TVC viability of E. coli in whole blood with SPS over time; format: cell-based
# Protocol: 2×5 mL whole blood or BacTec PLUS aerobic blood broth (1:3 ratio) aliquoted for each sample-set (E. coli and NSC sample). Then SPS added as follows:
# Then 5 μL of E. coli 1E-2 preculture added to each 5-mL specimen tube to recreate standard 1E-5 dilution sample
# • 1.88 μL neat o/n in Nutrient Broth (NB) added to 3 mL NB; and incubated for 2 hours at 37° C., 500 rpm • After 2 hours, E. coli preculture diluted 10-fold in warm NB; and then 5 μL added to each 5 mL specimen tube (prepared as shown in test conditions) • Magnitor Test initiated immediately, and TVCs performed as detailed below.
# • 100 μL on COL plates at Time Zero • Sample bijous, containing approximately 2 mL sample, left at room temperature (20.4° C.) on bench (static) • TVCs performed at time points shown in table: samples mixed thoroughly before plating
# [2] = test system: S. aureus; test: Blood culture time to positivity (flip time), bead rescue vs no-rescue control; format: cell-based; conditions: for Flip time: Bead rescue; for Flip time in hours/mins: 2 h at 37° C.; for Time to positivity in days: 900 cfu/5 ml
# Protocol: An overnight culture of test organism was prepared in blood/broth medium (50:50 blood:broth medium from a BioMerieux SA culture bottle).
# Ten-fold serial dilutions of overnight culture was prepared in blood/broth as required.
# Antibiotic (abx) was added to whole human blood (in citrate-phosphate-dextrose, CPD, an anticoagulant) at required level.
# Whole blood was used as the no-antibiotic control.
# Test dilution(s) of organism was added to blood+antibiotic or blood only at 10 μL per mL of blood (sufficient prepared for experiment requirements). 100 μL plate count sample was taken (TO sample).
# The inoculated samples were incubated at 37° C. (static) for 2-hour. 100 μL plate count sample was taken (T2 sample).
# For the control, 5 mL of spiked blood+abx or blood only was added to blood culture bottles (BioMerieux SA culture bottle) using a vial adapter (West Pharmaceutical Services, Inc. PA, US) and incubated in the automated blood culture cabinet (adapter removed).
# For the ‘rescue’ test, 5 mL of spiked blood+abx or blood only was treated with Momentum Capture Beads (Streptavidin-coated, −300 nm beads, Bio estapor, Merk Cat #BE-M 08/0.3) as below: • Momentum Capture Beads diluted in Detergent-free Microbial Binding Buffer (DMBB—Tris+NaCl)—50 μL beads:700 μL DMBB per clean-up • 750 μL of diluted beads added to 50 mL conical centrifuge tube • 5 mL of broth medium added to tube • 5 mL of spiked blood+abx or blood only added to tube • Incubate on ITL TherMix (Integrated Technologies Ltd. Kent, UK), 32.5° C./30 min/1000 rpm—ramped speed protocol • Magnetise on V&P magnet (V&P scientific Inc, CA, US) for 5 min then remove supernatant • Resuspend beads in 1 mL Detergent-free Wash Buffer (DWB—Tris+NaCl) off magnet and transfer to 2 mL Eppendorf flip-top tube on DynaMag-2 magnet (Thermo Fisher Scientific, Life Technologies Ltd. Paisley, UK) • Magnetise for 5 min then remove supernatant • Resuspend beads in 1 mL DWB off magnet then replace on DynaMag-2 magnet • Magnetise for 5 min then remove supernatant • Resuspend beads in 1 mL DWB, add to a fresh, unused blood culture bottle (BioMerieux SA culture bottle) containing standard blood culture growth medium using a vial adapter, and start incubation (adapter removed). • Blood culture bottles are incubated in the automated blood culture cabinet (BacT/ALERT BioMerieux) which records time to positivity. The “Flip” time is when a bottle turns positive as determined by the automated blood culture cabinet. • “Flip” time of each bottle is recorded. • Plate counts (Total Viable Count TVC) are recorded.
# Day 1: Prepare overnight culture of test organism in blood/broth medium (50:50 blood:broth) and incubate at 37° C. in a shaking incubator.
# Day 2: Prepare ten-fold serial dilution of overnight culture in blood/broth as required • Antibiotic added to whole blood (defibrinated horse blood) at required level • Whole blood as no-antibiotic control • Test dilution(s) of organism added to blood+antibiotic or blood only at 10 μL per mL of blood (sufficient prepared for experiment requirements) • 100 μL plate count sample taken (TO sample) • 2-hour incubation at 37° C. (static), to mimic organism exposure to antimicrobials in the patient • 100 μL plate count sample taken (T2 sample) • 5 mL of spiked blood+abx or blood only added to blood culture bottle (using vial adapter) and incubation started (adapter removed) • 5 mL of spiked blood+abx or blood only (from same source) treated with Momentum Capture Beads as below: • 1. Momentum Capture Beads diluted in Detergent-free Microbial Binding Buffer (DMBB)—50 μL beads:700 μL DMBB per clean-up • 2. 750 μL of diluted beads added to 50 mL conical centrifuge tube • 3. 5 mL of transfer medium added to tube • 4. 5 mL of spiked blood+abx or blood only added to tube • 5.
compound,measurement,setting,value
Sodium polyanethol sulfonate [SPS],FOLD INCR. 0-2 hr,[1]; WB SPS 0.01 %,3.39
same,TVC colonies,"[1]; WB SPS 0.01 %, EC Time 2 hrs",498 colonies
same,TVC colonies,"[1]; WB SPS 0.01 %, EC Time 4 hrs",TNTC
same,TVC colonies,"[1]; WB SPS 0.01 %, EC Time 6 hrs",TNTC
same,TVC colonies,"[1]; WB SPS 0.01 %, EC Time 21 hrs",LAWN
same,TVC colonies,"[1]; WB SPS 0.01 %, EC Time ZERO",147 colonies
same,FOLD INCR. 0-2 hr,[1]; WB SPS 0.02 %,4.67
same,TVC colonies,"[1]; WB SPS 0.02 %, EC Time 2 hrs",448 colonies
same,TVC colonies,"[1]; WB SPS 0.02 %, EC Time 4 hrs",TNTC
same,TVC colonies,"[1]; WB SPS 0.02 %, EC Time 6 hrs",TNTC
same,TVC colonies,"[1]; WB SPS 0.02 %, EC Time 21 hrs",LAWN
same,TVC colonies,"[1]; WB SPS 0.02 %, EC Time ZERO",96 colonies
same,FOLD INCR. 0-2 hr,[1]; WB SPS 0.04 %,3.12
same,TVC colonies,"[1]; WB SPS 0.04 %, EC Time 2 hrs",1106 colonies
same,TVC colonies,"[1]; WB SPS 0.04 %, EC Time 4 hrs",TNTC
same,TVC colonies,"[1]; WB SPS 0.04 %, EC Time 6 hrs",TNTC
same,TVC colonies,"[1]; WB SPS 0.04 %, EC Time 21 hrs",LAWN
same,TVC colonies,"[1]; WB SPS 0.04 %, EC Time ZERO",354 colonies
same,FOLD INCR. 0-2 hr,[1]; WB SPS 0.06 %,5.94
same,TVC colonies,"[1]; WB SPS 0.06 %, EC Time 2 hrs",760 colonies
same,TVC colonies,"[1]; WB SPS 0.06 %, EC Time 4 hrs",TNTC
same,TVC colonies,"[1]; WB SPS 0.06 %, EC Time 6 hrs",TNTC
same,TVC colonies,"[1]; WB SPS 0.06 %, EC Time 21 hrs",LAWN
same,TVC colonies,"[1]; WB SPS 0.06 %, EC Time ZERO",128 colonies
same,FOLD INCR. 0-2 hr,[1]; WB SPS 0.08 %,1.52
same,TVC colonies,"[1]; WB SPS 0.08 %, EC Time 2 hrs",491 colonies
same,TVC colonies,"[1]; WB SPS 0.08 %, EC Time 4 hrs",TNTC
same,TVC colonies,"[1]; WB SPS 0.08 %, EC Time 6 hrs",TNTC
same,TVC colonies,"[1]; WB SPS 0.08 %, EC Time 21 hrs",LAWN
same,TVC colonies,"[1]; WB SPS 0.08 %, EC Time ZERO",322 colonies
same,FOLD INCR. 0-2 hr,[1]; WB SPS 0.1 %,2.71
same,TVC colonies,"[1]; WB SPS 0.1 %, EC Time 2 hrs",341 colonies
same,TVC colonies,"[1]; WB SPS 0.1 %, EC Time 4 hrs",TNTC
same,TVC colonies,"[1]; WB SPS 0.1 %, EC Time 6 hrs",TNTC
same,TVC colonies,"[1]; WB SPS 0.1 %, EC Time 21 hrs",LAWN
same,TVC colonies,"[1]; WB SPS 0.1 %, EC Time ZERO",126 colonies
CCN1CCN(C(=O)N[C@@H](C(=O)N[C@@H]2C(=O)N3[C@@H]2SC(C)(C)[C@@H]3C(=O)O)c2ccccc2)C(=O)C1=O [Piperacillin],Flip time,"[2]; Piperacillin 96 ug/mL blood, CPD human blood, 750 cfu/5 mL",0.62 days
same,Flip time,"[2]; Piperacillin 96 ug/mL blood, CPD human blood, 5000 cfu/5 mL",0.57 days
same,Flip time,"[2]; Piperacillin 96 ug/mL blood, defibrinated horse blood, 5000 cfu/5 ml",0.78 days
same,Flip time,"[2]; Piperacillin 96 ug/mL blood, defibrinated horse blood, 50000 cfu/5 ml",0.65 days
same,Flip time,"[2]; S. aureus spike dil 10-3, Piperacillin 96 ug/ml human blood, SA bottle",0.57 days
same,Flip time,"[2]; S. aureus spike dil 10-4, Piperacillin 96 ug/ml human blood, SA bottle",0.62 days
same,Flip time in Days,"[2]; Control (no bead rescue), Piperacillin 96 ug/mL blood, CPD human blood, 750 cfu/5 mL",Neg
same,Flip time in Days,"[2]; Control (no bead rescue), Piperacillin 96 ug/mL blood, CPD human blood, 5000 cfu/5 mL",Neg
same,Flip time in Days,"[2]; Control (no bead rescue), Piperacillin 96 ug/mL blood, defibrinated horse blood, 5000 cfu/5 ml",Neg
same,Flip time in Days,"[2]; Control (no bead rescue), Piperacillin 96 ug/mL blood, defibrinated horse blood, 50000 cfu/5 ml",Neg
same,Flip time in hours/mins,"[2]; Control (no bead rescue), S. aureus spike dil 10-3, Piperacillin 96 ug/ml human blood, SA bottle",Negative at 120 h
same,Flip time in hours/mins,"[2]; Control (no bead rescue), S. aureus spike dil 10-4, Piperacillin 96 ug/ml human blood, SA bottle",Negative at 120 h
same,Flip time in Days,"[2]; No bead rescue Control BC, Piperacillin 96 ug/mL blood, 10000 cfu/5 mL",Neg
same,Flip time in Days,"[2]; No bead rescue Control BC, Piperacillin 96 ug/mL blood, 50000 cfu/5 mL",Neg
same,Time to positivity in days,"[2]; Piperacillin 96 ug/mL blood, Control (no beads)",Neg
same,Time to positivity in days,"[2]; Piperacillin 96 ug/mL blood, with magnetic beads in the bottle",Neg
